According to patent US20230256094A1, “CANCER RADIOSENSITIZATION BY IN SITU FORMATION OF GOLD NANOPARTICLES AND/OR GOLD NANOCLUSTERS” (BOARD OF REGENTS, THE UNIVERSITY OF TEXAS SYSTEM, priority 2020, published 2023):

How the values were obtained:
[1] = test system: PANC1 cells; assay: Optimization of conditions for intracellular synthesis of fluorescent GNCs; format: cell-based, human
Protocol: 2.3. Optimization of conditions for intracellular synthesis of GNCs. We determined optimal conditions for intracellular synthesis of fluorescent GNCs by PANC1 cells through variations in (1) how long cells condition media before addition of Au^3+ ions (FIG. 11), (2) the concentration of FBS within the media (FIG. 10), (3) concentration of added Au^3+ ions (FIGS. 13), and (4) incubation time (FIG. 12). We used the following standard conditions: 24 hr cell conditioning time, 10% FBS, 1.00 mM Au^3+, and 24 hr Au^3+ treatment duration. […] We observed significant formation of GNCs at Au^3+ concentrations between 0.20-0.75 mM, with fluorescence reduced at concentrations greater than 1.00 mM, possibly, due to formation of larger non-fluorescent gold nanoparticles (GNPs). We observed fluorescence as early as 30 minutes after addition of gold atoms with a significant increase up to 4 hours.

[2] = test system: thyroid cancer; assay: gamma H2AX foci after x-ray irradiation, thyroid cancer; format: cell-based; conditions: 24 hours after x-ray irradiation, 0 or 8 Gy, 0.20 mM
Description: Treatments are in full cell media.

[3] = test system: PANC1 pancreatic cancer; assay: TBARS assay of peroxidation product formation; format: cell-based, human; conditions: 24 hr post irradiation
Protocol: FIG. 25 reports on a mechanistic study of radiosensitization quantifying the ratio of peroxidation product formation resulting from X-ray damage through TBARS assay, resulting from 24 hour, 0.20 mM Au^3+ treatments (right) compared against non-treated (left) combined with either 0 Gy or 8 Gy x-ray irradiation. Treatments are in full cell media to PANC1 pancreatic cancer.
Further, we characterized the mechanisms of radiosensitization through (i) quantification of double stranded DNA breaks via y-H2AX Foci (FIG. 21), (ii) mitochondrial polarization via JC-1 assay (FIG. 22), (iii) NADP total (FIG. 23) and NADP:NADPH ratio (FIG. 24) via NADP(H) assay, and (iv) peroxidation production via TBARS assay (FIG. 25).

[4] = test system: PANC1 cells; assay: MTS viability assay; format: cell-based
Protocol: 2.4. Characterize cytotoxicity of gold atom treatment. An MTS viability assay was used with 0-2.0 mM Au^3+ dose range. […] MTS assay was not usable at concentrations >0.75 mM Au^3+ due to intracellular formation of larger GNPs and their absorbance interfering with the MTS results. Therefore, at higher Au^3+ we switched to AO/PI live-dead staining (FIG. 15) and JC-1 mitochondrial depolarization assays (FIG. 19). JC-1 assay indicated cell viability ˜80% for concentrations between 0.20-1.50 mM Au^3+.

[5] = test system: LTPA pancreatic cancer cells; assay: Clonogenic assay after X-ray irradiation; format: cell-based; conditions: 0.1 mM, 24 hours; for radiosensitization effect as compared to untreated control: cancer cells, X-rays 0 to 8 Gy
Protocol: Radiosensitization due to intracellular GNC formation (i.e., delivery of Au^3+) was compared between cancerous and non-cancerous cells using a standard clonal assay. For radiosensitization, cells were incubated with 0.1 mM of buffered chloroauric acid in cell culture media for 24 hours. Then, the cells were lifted and plated in 30 mm culture dishes at optimized cell densities for observation of colony formation following irradiation with X-rays at dosages ranging from 0 to 8 Gy (XRAD SmART). […] The radiosensitization results correlated well with the fluorescence images showing greater production of GNCs by cancerous cells (FIG. 6A-6B). For LTPA pancreatic cancer cells the surviving fraction values decreased by a factor of 2.3x and 3.5x for radiation of 4 Gy and 6 Gy, respectively, in cells treated with gold atoms compared to untreated control (FIG. 6B). This relative decrease in surviving fraction is similar or better than previously reported values observed in cells treated with pre-synthetized GNPs. We believe that the observed improvement in radiation efficiency in killing cancer cells might be associated with a strong nuclear localization of in situ synthetized GNCs.

SMILES: [Au+3].[Cl-].[Cl-].[Cl-].[Cl-].[H+] [Au^3+, chloroauric acid]
- earliest time at which fluorescence was observed after addition ([1]; 1.00 mM, 10% FBS): 30 min
- time up to which fluorescence increased significantly ([1]; 1.00 mM, 10% FBS): up to 4 hours
- Au^3+ concentrations at which fluorescence is reduced ([1]; 24 hr treatment, 10% FBS): greater than 1.00 mM
- Au^3+ concentrations with significant formation of GNCs ([1]; 24 hr treatment, 10% FBS): 0.20 to 0.75 mM
- change of GNC synthesis with duration of media conditioning or FBS concentration ([1]; media conditioning up to 72-hr, FBS 0-10% (v/v)): No significant changes
- radiosensitization via induced double stranded DNA breaks (gamma H2AX foci) [2]: evidence of radiosensitization via induced double stranded DNA breaks
- increase in peroxidation product formation [3]: ~2 x
- impact on viability (MTS) ([4]; 0.0-0.20 mM): no impacts on viability
- cell viability (MTS) ([4]; 0.75 mM): ~81%
- factor of decrease of surviving fraction compared to untreated control ([5]; 4 Gy): 2.3 x
- factor of decrease of surviving fraction compared to untreated control ([5]; 6 Gy): 3.5 x
- radiosensitization effect as compared to untreated control [5]: significant radiosensitization effect
- radiosensitization effect as compared to untreated control ([5]; listed as buffered chloroauric acid): significantly greater radiosensitization effect
